Reference: US20130303565A1 (priority 2012, published 2013)

Legend:
Bcr-Abl tyrosine kinase = settings: inhibiting activity of the Bcr-Abl tyrosine kinase and proliferation, versus imatinib; cited from earlier work
[1] = tested on: HL-60 (human promyelocytic cells); assay: Cell proliferation assay (Trypan Blue dye exclusion), HL60; type: cell-based; settings: tritoqualine 10^-5-10^-8 M, 72 hr, with or without G-CSF 50 ng/mL
Experimental: (§1) U937 (monocytic leukemia cells), and HL-60 (human promyelocytic cells) and TF1 (Human erythro leukemia cells) were obtained from cell bank of Necker. HL-60, U937 and TF1 were maintained. in RPMI-1640 medium supplemented with 10% FCS, 100 U/mL penicillin, and 100 μg/mL streptomycin. These cells were cultured in an incubator containing humidified air with 5% CO2 at […].
(§2) HL60, U937, TF1 cells (5×10^5 cells/mL) in conditioning medium were cultured with various concentrations of tritoqualine (10^−5-10^−8 M) in the presence or absence of G-CSF (50 ng/mL) in 6-well flat-bottomed plates for 72 hr. Cell proliferation assay and viability examination were performed using the Trypan Blue dye exclusion method. All experiments were performed in triplicate.
(§3) The maximum effect is on TF1 cells line. The inhibition is about 85%. The effect on HL60 is only 60% of inhibition. This effect dose is equivalent to the dose of 200 mg to 2000 mg of tritoqualine in human. This effect on leukemia clone is very surprising because tritoqualine is a molecule with low toxicity.

[2] = tested on: TF1 (Human erythro leukemia cells); assay: Cell proliferation assay (Trypan Blue dye exclusion), TF1; type: cell-based; settings: tritoqualine 10^-5-10^-8 M, 72 hr, with or without G-CSF 50 ng/mL
Experimental: as §1, §2, §3

[3] = tested on: U937 (monocytic leukemia cells); assay: Cell proliferation assay (Trypan Blue dye exclusion), U937; type: cell-based; settings: each leukemic cell line incl. U937, tritoqualine 10^-5-10^-8 M, 72 hr
Experimental: as §1, §2, §3

histamine H4 = histamine H4 (Homo sapiens, UniProt Q9H3N8); assay: Histamine H4 agonist activity
histamine H4, sequence (Q9H3N8 whole entry): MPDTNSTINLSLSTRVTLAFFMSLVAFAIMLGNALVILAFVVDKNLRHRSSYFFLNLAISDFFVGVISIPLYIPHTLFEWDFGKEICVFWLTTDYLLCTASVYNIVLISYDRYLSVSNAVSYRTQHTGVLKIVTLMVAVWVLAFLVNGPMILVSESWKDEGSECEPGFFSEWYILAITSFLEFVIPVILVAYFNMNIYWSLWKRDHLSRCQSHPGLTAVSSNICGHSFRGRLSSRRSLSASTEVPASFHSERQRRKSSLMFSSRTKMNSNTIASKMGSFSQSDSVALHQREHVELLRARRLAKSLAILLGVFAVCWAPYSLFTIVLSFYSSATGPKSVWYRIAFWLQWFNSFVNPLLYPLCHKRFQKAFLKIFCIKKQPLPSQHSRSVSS

Cc1cn(-c2cc(NC(=O)c3ccc(C)c(Nc4nccc(-c5cccnc5)n4)c3)cc(C(F)(F)F)c2)cn1 [Nilotinib]
potency relative to imatinib (Bcr-Abl tyrosine kinase): 10-30 fold

CCOc1c(N)c2c(c(OCC)c1OCC)C(C1c3c(cc4c(c3OC)OCO4)CCN1C)OC2=O (centres unmarked) [tritoqualine, 7-Amino-4,5,6-triethoxy-3-(5,6,7,8-tetrahydro-4-methoxy-6-methyl-1,3-dioxolo[4,5-g]isoquinolin-5-yl) phthalide]
inhibition of proliferation and viability [1]: 60%
inhibition of proliferation and viability (maximum effect) [2]: about 85%
inhibition of proliferation and viability (in words) [3]: dose-dependently inhibited proliferation and viability
histamine H4 activity (in words) (histamine H4): histamine H4 agonist
